# Measurements reported in patent US9695192B2, “Fused heterocyclic compounds as ion channel modulators” (GILEAD SCIENCES, INC., priority 2011, dated 2017).
# Columns and labels:
# hNav1.2 sodium channel = molecular target: T1, hNav1.2 sodium channel (Homo sapiens, UniProt Q99250); test: Nav1.2 use-dependent block, whole-cell voltage clamp, 10 Hz pulse train; type: cell-based; details: Chantest conditions, read-out: NAV1.2 UDB-10 HZ % Inhibition
# T1 construct: expressed in transfected cells
# Source text: Wild-type (WT) cDNA stably transfected in Chinese hamster ovary (CHO) cells is used to record INa. Unless otherwise noted, all reagents are purchased from Sigma-Aldrich (St Louis, Mo., U.S.A.).
# Whole-cell voltage-clamp recordings are used to measure the biophysical properties of WT. Briefly, the pipette solution consists of (in mM) 110 CsF, 10 NaF, 20 CsCl, 2 EGTA, 10 HEPES, with a pH of 7.35 and osmolarity of 300 mOsmol/kg. The bath (control) solution contains in (mM): 145 NaCl, 4 KCl, 1.8 CaCl2, 1 MgCl2, 10 dextrose, 10 HEPES, with a pH of 7.35 and osmolarity of 310 mOsmol/kg. Cells are allowed to stabilize for 10 min after establishment of the whole-cell configuration before current is measured. Series resistance is compensated 90% to assure that the command potential is reached within microseconds with a voltage error<2 mV. Leak currents are subtracted by using an online P/4 procedure and all currents are low-pass Bessel filtered at 5 kHz and digitized at 50 kHz.
# Tonic block of peak current is measured using a step to −10 mV (20 ms) from a holding potential of −120 mV (0.2 Hz). Use-dependent block of peak current is measured during pulse number 300 of a pulse train (−10 mV, 5 ms, 300 pulses, 10 Hz or 25 Hz) from a holding potential of −120 mV. Currents are then normalized to the peak current recorded in response to the first pulse in each frequency train. For tonic block studies, peak current is evaluated in response to a 20 ms depolarization to −10 mV (0.2 Hz). Two sequential pulse train stimulations are averaged to obtain mean current traces for each recording condition, which are then used for offline subtraction and analysis.
# A stock solution of 10 mM compound of Formula I is prepared in 0.1 M HCl or DMSO. A fresh dilution of the compound of Formula I in the bath solution is prepared every experimental day and the pH is readjusted to 7.35 as necessary. The final DMSO concentration was kept at 0.1% in all solutions. Direct application of the perfusion solution to the clamped cell is achieved using the Perfusion Pencil system (Automate, Berkeley, Calif.). Direct cell perfusion is driven by gravity at a flow rate of 350 μL/min using a 250 micron tip. This system sequesters the clamped cell within a perfusion stream and enables complete solution exchange within 1 second. The clamped cell is perfused continuously starting immediately after establishing the whole-cell configuration. Control currents are measured during control solution perfusion.
# Solutions are perfused for three minutes prior to current recordings to allow equilibrium (tonic) drug block. Tonic block of peak currents is measured from this steady-state condition. Three sequential current traces are averaged to obtain a mean current for each recording. The mean current traces are utilized for offline analysis.
# human Nav1.1 = molecular target: T2, human Nav1.1 (Homo sapiens, UniProt P35498); test: Nav1.1 use-dependent block, whole-cell voltage clamp, 10 Hz pulse train; type: cell-based; details: Chantest conditions, read-out: NAV1.1 UDB-10 HZ % Inhibition
# T2 construct: expressed in transfected cells; host or cells: HEK293, transient transfection (Qiagen Superfect), α1:β1:β2 at 10:1:1
# T1 sequence (Q99250 whole entry): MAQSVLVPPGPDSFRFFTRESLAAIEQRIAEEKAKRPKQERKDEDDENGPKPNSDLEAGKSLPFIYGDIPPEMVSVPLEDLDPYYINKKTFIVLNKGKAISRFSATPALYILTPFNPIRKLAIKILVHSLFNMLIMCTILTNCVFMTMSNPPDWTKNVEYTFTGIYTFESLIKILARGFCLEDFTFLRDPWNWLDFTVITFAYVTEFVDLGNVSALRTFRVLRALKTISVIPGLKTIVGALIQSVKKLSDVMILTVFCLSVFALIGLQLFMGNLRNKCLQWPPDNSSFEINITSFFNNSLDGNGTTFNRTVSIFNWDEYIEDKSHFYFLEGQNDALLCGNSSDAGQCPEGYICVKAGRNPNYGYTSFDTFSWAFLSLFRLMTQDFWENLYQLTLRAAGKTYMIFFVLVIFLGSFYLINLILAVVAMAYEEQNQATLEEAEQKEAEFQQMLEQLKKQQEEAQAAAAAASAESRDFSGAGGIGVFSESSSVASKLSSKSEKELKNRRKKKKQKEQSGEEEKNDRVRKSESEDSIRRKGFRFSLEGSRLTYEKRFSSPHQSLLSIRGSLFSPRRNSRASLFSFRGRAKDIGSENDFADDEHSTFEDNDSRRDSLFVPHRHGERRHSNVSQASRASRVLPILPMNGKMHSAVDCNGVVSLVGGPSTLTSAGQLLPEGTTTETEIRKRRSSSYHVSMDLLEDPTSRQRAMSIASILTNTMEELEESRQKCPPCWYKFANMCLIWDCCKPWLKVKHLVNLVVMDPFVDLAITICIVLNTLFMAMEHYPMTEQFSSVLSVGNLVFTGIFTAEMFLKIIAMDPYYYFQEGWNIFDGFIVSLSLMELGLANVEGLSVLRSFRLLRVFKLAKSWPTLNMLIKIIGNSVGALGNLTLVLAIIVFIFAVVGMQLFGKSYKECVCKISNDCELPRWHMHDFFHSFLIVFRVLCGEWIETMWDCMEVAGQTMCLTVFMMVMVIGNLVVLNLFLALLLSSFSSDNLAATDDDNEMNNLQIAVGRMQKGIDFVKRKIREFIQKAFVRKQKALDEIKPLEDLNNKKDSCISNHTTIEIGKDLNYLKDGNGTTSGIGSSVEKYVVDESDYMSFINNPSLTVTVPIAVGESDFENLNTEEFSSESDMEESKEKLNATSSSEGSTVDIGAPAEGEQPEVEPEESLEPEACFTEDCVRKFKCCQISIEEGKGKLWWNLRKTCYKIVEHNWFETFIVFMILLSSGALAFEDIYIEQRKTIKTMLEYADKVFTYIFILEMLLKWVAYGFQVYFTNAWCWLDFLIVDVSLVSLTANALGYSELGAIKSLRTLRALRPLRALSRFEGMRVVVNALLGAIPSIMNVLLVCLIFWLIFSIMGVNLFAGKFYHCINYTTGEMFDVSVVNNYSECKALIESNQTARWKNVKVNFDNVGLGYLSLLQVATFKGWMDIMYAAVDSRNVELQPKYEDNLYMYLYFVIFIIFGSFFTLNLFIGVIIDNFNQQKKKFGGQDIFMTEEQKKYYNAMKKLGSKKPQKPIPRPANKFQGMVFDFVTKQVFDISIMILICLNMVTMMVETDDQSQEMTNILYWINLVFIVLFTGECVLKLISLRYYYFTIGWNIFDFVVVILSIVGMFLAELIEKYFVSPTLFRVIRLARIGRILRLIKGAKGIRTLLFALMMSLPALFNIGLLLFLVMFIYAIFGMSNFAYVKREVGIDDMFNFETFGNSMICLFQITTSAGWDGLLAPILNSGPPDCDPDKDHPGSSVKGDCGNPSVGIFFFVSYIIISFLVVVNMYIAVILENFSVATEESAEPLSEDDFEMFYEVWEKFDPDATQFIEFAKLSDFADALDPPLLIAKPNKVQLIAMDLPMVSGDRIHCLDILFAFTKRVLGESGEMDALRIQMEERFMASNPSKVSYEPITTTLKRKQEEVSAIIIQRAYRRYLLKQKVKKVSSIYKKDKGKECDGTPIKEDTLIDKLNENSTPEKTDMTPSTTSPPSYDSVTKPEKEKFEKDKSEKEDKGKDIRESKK
smiles,measurement,setting,value
"FC(F)(F)c1ccc(-c2ccc3c(c2)C(NCc2ccccc2)=NCCO3)cc1 [II-2, N-benzyl-7-(4-(trifluoromethyl)phenyl)-2,3-dihydrobenzo[f][1,4]oxazepin-5-amine]",inhibition at 1 µM,hNav1.2 sodium channel,24%
same,inhibition at 1 µM,human Nav1.1,9%
